This note sets out measurements from patent US20250011299A1, “PYRIDAZINYL AMINO DERIVATIVES AS ALK5 INHIBITORS” (CHIESI FARMACEUTICI S.P.A., priority 2021, published 2025).

By Ki is commonly meant the equilibrium dissociation constant of an inhibitor or competing ligand from its target.

The target of the experiment is T1, human ALK5 (Homo sapiens, UniProt P36897).
T1 construct: human ALK5 (recombinant TGF β1 N-term GST-tagged, 80-end); GST (N); purchased
T1 sequence (P36897 80-503 limits assumed): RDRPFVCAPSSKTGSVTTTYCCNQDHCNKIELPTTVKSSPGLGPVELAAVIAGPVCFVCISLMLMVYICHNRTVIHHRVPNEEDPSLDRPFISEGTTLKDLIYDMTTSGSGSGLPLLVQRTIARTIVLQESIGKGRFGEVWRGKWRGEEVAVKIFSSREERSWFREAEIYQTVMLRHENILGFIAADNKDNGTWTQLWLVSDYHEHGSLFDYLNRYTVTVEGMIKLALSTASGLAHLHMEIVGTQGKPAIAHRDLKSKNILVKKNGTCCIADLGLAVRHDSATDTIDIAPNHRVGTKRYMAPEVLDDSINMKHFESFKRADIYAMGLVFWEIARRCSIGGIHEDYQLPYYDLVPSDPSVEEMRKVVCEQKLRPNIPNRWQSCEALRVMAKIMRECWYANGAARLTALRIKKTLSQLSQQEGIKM
Nature of the experiment: ADP-GLO Kinases assay of ALK5 enzymatic activity. It is filed as biochemical. The following applies: purified recombinant human ALK5, TGFβ1 peptide substrate, pIC50 converted to pKi by Cheng-Prusoff, high ATP protocol (15 μM) for very potent compounds, 25° C. The method in brief: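 Purified ALK5 preincubated 15 min with compound, then reacted with substrate and ATP; ADP formed read by ADP-Glo luminescence after 120 min or 60 min reaction, all steps at 25° C. 11-point concentration-response; pIC50 converted to pKi via Cheng-Prusoff.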
(In general: ADP-Glo first removes unused ATP, then detects ADP through luciferase.)

Values joined by “and” are separate entries in the source; they are usually repeats but may differ in a detail not shown here. Equal values may be shown once.

Regarding `CN1CCN(CCC(=O)Nc2cc(Nc3cc(-c4cc(Cl)ccc4F)nnc3OCC3COC(C)(C)O3)ccn2)CC1` (stereo not drawn) [Example 77, N-(4-{[6-(5-chloro-2-fluorophenyl)-3-[(2,2-dimethyl-1,3-dioxolan-4-yl)methoxy]pyridazin-4-yl]amino}pyridin-2-yl)-3-(4-methylpiperazin-1-yl)propanamide], the inhibitory constant (Ki) is ≤ 0.1 nM.

Turning to `CN1CCN(CCOc2nnc(-c3cc(Cl)ccc3F)cc2Nc2ccnc3[nH]ccc23)CC1` [Example 37, 6-(5-chloro-2-fluorophenyl)-3-[2-(4-methylpiperazin-1-yl)ethoxy]-N-{1H-pyrrolo[2,3-b]pyridin-4-yl}pyridazin-4-amine], the inhibition constant Ki was 0.398 to 3.16 nM.

Consider `Nc1cc(Nc2cc(-c3cc(Cl)ccc3F)nnc2OCC(F)(F)F)ccn1` [Example 49, N4-[6-(5-chloro-2-fluorophenyl)-3-(2,2,2-trifluoroethoxy)pyridazin-4-yl]pyridine-2,4-diamine], for which the inhibition constant Ki is 0.398 to 3.16 nM.

For `COc1ccc2c(Nc3cc(-c4cc(Cl)ccc4F)nnc3OCCN3CCN(C)CC3)ccnc2c1` [Example 35, N-[6-(5-chloro-2-fluorophenyl)-3-[2-(4-methylpiperazin-1-yl)ethoxy]pyridazin-4-yl]-7-methoxyquinolin-4-amine], the inhibitory constant (Ki) was 0.126 to 0.316 nM.

Take `CN1CCN(CCC(=O)Nc2cc(Nc3cc(-c4cc(Cl)ccc4F)nnc3S(C)(=N)=O)ccn2)CC1` (stereo not drawn) [Example 19, N-(4-{[6-(5-chloro-2-fluorophenyl)-3-[imino(methyl)oxo-λ^6-sulfanyl]pyridazin-4-yl]amino}pyridin-2-yl)-3-(4-methylpiperazin-1-yl)propanamide]: the Ki was 0.398 to 3.16 nM.

`CN(C)CCOc1nnc(-c2cc(Cl)ccc2F)cc1Nc1ccnc(NC(=O)CCN2CCOCC2)c1` [Example 40, N-(4-{[6-(5-chloro-2-fluorophenyl)-3-[2-(dimethylamino)ethoxy]pyridazin-4-yl]amino}pyridin-2-yl)-3-(morpholin-4-yl)propanamide]: the inhibitory constant (Ki) is 0.126 to 0.316 nM and 0.398 to 3.16 nM.

Turning to `C[C@@H]1CN(CCC(=O)Nc2cc(Nc3cc(-c4cc(Cl)ccc4F)nnc3N(C)CC3(C)CCOC3=O)ncn2)C[C@H](C)N1` (single isomer, unassigned) [Example 198, N-(6-{[6-(5-chloro-2-fluorophenyl)-3-{methyl[(3-methyl-2-oxooxolan-3-yl)methyl]amino}pyridazin-4-yl]amino}pyrimidin-4-yl)-3-(3,5-dimethylpiperazin-1-yl)propanamide], the inhibitory constant (Ki) was ≤ 0.1 nM.

Consider `CN1CCN(CCC(=O)Nc2cc(Nc3cc(-c4cc(Cl)ccc4F)nnc3OC3CCOC3)ccn2)CC1` (single isomer, unassigned) [Example 75, N-(4-{[6-(5-chloro-2-fluorophenyl)-3-(oxolan-3-yloxy)pyridazin-4-yl]amino}pyridin-2-yl)-3-(4-methylpiperazin-1-yl)propanamide], for which the inhibition constant Ki was ≤ 0.1 nM.

For the compound `CSCCCOc1nnc(-c2cc(Cl)ccc2F)cc1Nc1ccnc(NC(=O)CCN2CCN(C)CC2)c1` [Example 4, N-(4-{[6-(5-chloro-2-fluorophenyl)-3-[3-(methylsulfanyl)propoxy]pyridazin-4-yl]amino}pyridin-2-yl)-3-(4-methylpiperazin-1-yl)propanamide], the Ki was 0.126 to 0.316 nM.

As to `CN1CCN(CCC(=O)Nc2cc(Nc3cc(-c4cc(Cl)ccc4F)nnc3N3CC(C(=O)O)C3)ccn2)CC1` [Example 99, 1-[6-(5-chloro-2-fluorophenyl)-4-({2-[3-(4-methylpiperazin-1-yl)propanamido]pyridin-4-yl}amino)pyridazin-3-yl]azetidine-3-carboxylic acid], the Ki is 0.126 to 0.316 nM.

For `COC(=O)COc1nnc(-c2cc(Cl)ccc2F)cc1Nc1ccnc(NC(=O)CCN2CCN(C)CC2)c1` [Example 15, methyl 2-{[6-(5-chloro-2-fluorophenyl)-4-({2-[3-(4-methylpiperazin-1-yl)propanamido]pyridin-4-yl}amino)pyridazin-3-yl]oxy}acetate], the Ki is 0.126 to 0.316 nM.

In the case of `COC(=O)C12CC(COc3nnc(-c4cc(Cl)ccc4F)cc3Nc3ccnc(NC(=O)[C@H]4C[C@@H](N5CCN(C)CC5)C4)c3)(C1)C2` [Example 126, Cis methyl 3-({[6-(5-chloro-2-fluorophenyl)-4-({2-[(1s,3s)-3-(4-methylpiperazin-1-yl)cyclobutaneamido]pyridin-4-yl}amino)pyridazin-3-yl]oxy}methyl)bicyclo[1.1.1]pentane-1-carboxylate], the inhibition constant (Ki) is ≤ 0.1 nM.

For the compound `CN1CCN(CCC(=O)Nc2cc(Nc3cc(-c4cc(Cl)ccc4F)nnc3OC[C@H]3C[C@@](C)(O)C3)ccn2)CC1` [Example 123, N-(4-{[6-(5-chloro-2-fluorophenyl)-3-[(3-hydroxy-3-methylcyclobutyl)methoxy]pyridazin-4-yl]amino}pyridin-2-yl)-3-(4-methylpiperazin-1-yl)propanamide], the inhibitory constant (Ki) was 0.126 to 0.316 nM.

As for `CN1CCCN(CC(=O)Nc2cc(Nc3cc(-c4cc(Cl)ccc4F)nnc3SCCO)ccn2)CC1` [Example 27, N-(4-{[6-(5-chloro-2-fluorophenyl)-3-[(2-hydroxyethyl)sulfanyl]pyridazin-4-yl]amino}pyridin-2-yl)-2-(4-methyl-1,4-diazepan-1-yl)acetamide], the Ki is ≤ 0.1 nM.

With `CN1C[C@@H]2C[C@H]1CN2[C@H]1C[C@@H](C(=O)Nc2cc(Nc3cc(-c4cc(Cl)ccc4F)nnc3SCCO)ccn2)C1` [Example 87, Cis N-(4-{[6-(5-chloro-2-fluorophenyl)-3-[(2-hydroxyethyl)sulfanyl]pyridazin-4-yl]amino}pyridin-2-yl)-3-[(1S,4S)-5-methyl-2,5-diazabicyclo[2.2.1]heptan-2-yl]cyclobutane-1-carboxamide], the Ki was ≤ 0.1 nM.

On to `O=C(Nc1cc(Nc2cc(-c3cc(Cl)ccc3F)nnc2SCCO)ccn1)C1CC(N2CCC(F)(F)C(CO)C2)C1` (racemic) [Example 170, N-(4-{[6-(5-chloro-2-fluorophenyl)-3-[(2-hydroxyethyl)sulfanyl]pyridazin-4-yl]amino}pyridin-2-yl)-3-[4,4-difluoro-3-(hydroxymethyl)piperidin-1-yl]cyclobutane-1-carboxamide], for which the Ki is ≤ 0.1 nM.

On to `CN1CCN(CCCC(=O)Nc2cc(Nc3cc(-c4cc(Cl)ccc4F)nnc3SCCO)ccn2)CC1` [Example 23, N-(4-{[6-(5-chloro-2-fluorophenyl)-3-[(2-hydroxyethyl)sulfanyl]pyridazin-4-yl]amino}pyridin-2-yl)-4-(4-methylpiperazin-1-yl)butanamide], for which the Ki was 0.126 to 0.316 nM.

As for `CN1CCN(CCC(=O)Nc2cc(Nc3cc(-c4cc(Cl)ccc4F)nnc3SCC3COC(C)(C)O3)ccn2)CC1` (stereo not drawn) [Example 85, N-(4-{[6-(5-chloro-2-fluorophenyl)-3-{[(2,2-dimethyl-1,3-dioxolan-4-yl)methyl]sulfanyl}pyridazin-4-yl]amino}pyridin-2-yl)-3-(4-methylpiperazin-1-yl)propanamide], the Ki was ≤ 0.1 nM.

As for `CN1CCN(CCOc2nnc(-c3cc(Cl)ccc3F)cc2Nc2ccnc(NC(=O)C3CC3)c2)CC1` [Example 36, N-(4-{[6-(5-chloro-2-fluorophenyl)-3-[2-(4-methylpiperazin-1-yl)ethoxy]pyridazin-4-yl]amino}pyridin-2-yl)cyclopropanecarboxamide], the Ki was ≤ 0.1 nM.

For `CN1CCN(CCC(=O)Nc2cc(Nc3cc(-c4cc(Cl)ccc4F)nnc3SC(C)(C)CO)ccn2)CC1` [Example 93, N-(4-{[6-(5-chloro-2-fluorophenyl)-3-[(1-hydroxy-2-methylpropan-2-yl)sulfanyl]pyridazin-4-yl]amino}pyridin-2-yl)-3-(4-methylpiperazin-1-yl)propanamide], the Ki is 0.126 to 0.316 nM.

In the case of `CSc1nnc(-c2cc(Cl)ccc2F)cc1Nc1ccnc(NC(=O)CCN2CCN(CCN)CC2)c1` [Example 20, 3-[4-(2-aminoethyl)piperazin-1-yl]-N-(4-{[6-(5-chloro-2-fluorophenyl)-3-(methylsulfanyl)pyridazin-4-yl]amino}pyridin-2-yl)propanamide], the Ki was ≤ 0.1 nM.

For `CN1C[C@@H]2C[C@H]1CN2CC(=O)Nc1cc(Nc2cc(-c3cc(Cl)ccc3F)nnc2OC[C@H]2C[C@@H](O)C2)ccn1` [Example 122, N-(4-{[6-(5-chloro-2-fluorophenyl)-3-[(3-hydroxycyclobutyl)methoxy]pyridazin-4-yl]amino}pyridin-2-yl)-2-[(1S,4S)-5-methyl-2,5-diazabicyclo[2.2.1]heptan-2-yl]acetamide], the Ki is ≤ 0.1 nM.

Regarding `CN1CCN([C@H]2C[C@@H](C(=O)Nc3cc(Nc4cc(-c5cc(Cl)ccc5F)nnc4OC4CCOC4)ccn3)C2)CC1` (single isomer, unassigned) [Example 111, N-(4-{[6-(5-chloro-2-fluorophenyl)-3-(oxolan-3-yloxy)pyridazin-4-yl]amino}pyridin-2-yl)-3-(4-methylpiperazin-1-yl)cyclobutane-1-carboxamide], the inhibition constant (Ki) is ≤ 0.1 nM.

`O=C(Nc1cc(Nc2cc(-c3cc(Cl)ccc3F)nnc2SCCO)ccn1)[C@H]1C[C@@H](N2CCN(C3CC3)CC2)C1` [Example 160, Cis N-(4-{[6-(5-chloro-2-fluorophenyl)-3-[(2-hydroxyethyl)sulfanyl]pyridazin-4-yl]amino}pyridin-2-yl)-3-(4-cyclopropylpiperazin-1-yl)cyclobutane-1-carboxamide]: the Ki was ≤ 0.1 nM.
